Consider four compounds from patent publication US10844038B2, “1,2-dithiolane compounds useful in neuroprotection, autoimmune and cancer diseases and conditions” (SABILA BIOSCIENCES LLC, priority 2016, dated 2020).

The structures appear in SMILES notation. Where two headings read alike, the source gives them in different places.

One test has as its target BTK (Homo sapiens (Human), UniProt Q06187). Description: Radioisotope filter binding assay. It counts as biochemical. The following applies: read-out: IC50 Activity Levels Against Representative TEC Family Kinases: BTK. Here is the method:
(§1) 3. Radioisotope Filter Binding Assay:
(§2) In this assay format, it directly detects the true product without the use of modified substrates or coupling enzymes (Uitdehaag, J. C., et al. Br. J. Pharmacol. 2012, 166, 858-876; Hastie, C. J., et al. Nat. Protoc. 2006, 1, 968-971) according to equation 1. Substrate+[γ−^33P]−ATP→^33P-Substrate+ADP eq 1
(§3) The protocol calls for test compound of the invention to be incubated with kinase, substrate, cofactors, and radio-isotope-labeled ATP (^33P-gamma-ATP). The reaction mixtures are then spotted onto filter papers which bind the radioisotope labeled catalytic product. Unreacted phosphate is removed via washing. The reagents used include base reaction buffer; 20 mM Hepes (pH 7.5), 10 mM MgCl2, 1 mM EGTA, 0.02% Brij35, 0.02 mg/ml BSA, 0.1 mM Na3VO4, 2 mM DTT, 1% DMSO. The reaction procedure include the following steps: (1) prepare indicated substrate in freshly prepared base reaction buffer, (2) deliver any required cofactors to the substrate solution above, (3) deliver indicated kinase into the substrate solution and gently mix, (4) deliver compounds in DMSO into the kinase reaction mixture by Acoustic technology (Echo550; nanoliter range), incubate for 20 minutes at room temperature, (5) deliver ^33P-ATP (specific activity 10 μCi/μL) into the reaction mixture to initiate the reaction, (6) incubate kinase reaction for 2 hours at room temperature, (7) reactions are spotted onto P81 ion exchange paper, (8) detect kinase activity by filter-binding method.

The next test addresses FYN (Homo sapiens (Human), UniProt P06241). The test can be described thus: Radioisotope filter binding assay. It counts as biochemical. The settings on record: read-out: IC50 Activity Levels Against SRC Family Kinases: FYN. The protocol:
as §1, §2, §3

In another test the target is LCK (Homo sapiens (Human), UniProt P06239). Description: Radioisotope filter binding assay. It counts as biochemical. The settings on record: read-out: IC50 Activity Levels Against SRC Family Kinases: LCK. The protocol:
as §1, §2, §3

A further test concerns the target CRAP (Homo sapiens (Human), UniProt P04049). Description: Radioisotope filter binding assay. Format: biochemical. The settings on record: read-out: IC50 Activity Levels Against MAPK Pathway Kinases: CRAP. Here is the method:
as §1, §2, §3

The target in another test is BRK (Homo sapiens (Human), UniProt Q13882). Description: Radioisotope filter binding assay. It counts as biochemical. The following applies: read-out: IC50 Activity Levels Against FRK Family Kinases: BRK. Here is the method:
as §1, §2, §3

Another test concerns the target FYN-Y531F (Homo sapiens (Human), UniProt P06241, Y531F). The test can be described thus: Radioisotope filter binding assay. The settings on record: read-out: IC50 Activity Levels Against FYN Mutant: FYN-Y531F. Format: biochemical. The protocol:
as §1, §2, §3

A further test addresses FLT3-ITD. Description: Radioisotope filter binding assay. It counts as biochemical. The following applies: read-out: IC50 Activity Levels Against Type III NRT Kinases: FLT3-ITD. The protocol: as §1, §2, §3
In a further test the target is BLK (Homo sapiens (Human), UniProt P51451). Description: Radioisotope filter binding assay. The following applies: read-out: IC50 Activity Levels Against SRC Family Kinases: BLK. It counts as biochemical. The protocol:
as §1, §2, §3

The target of a further test is ARAF (Homo sapiens (Human), UniProt P10398). The test can be described thus: Radioisotope filter binding assay. Format: biochemical. The settings on record: read-out: IC50 Activity Levels Against MAPK Pathway Kinases: ARAF. Here is the method:
as §1, §2, §3

Another test has as its target mTOR (Homo sapiens (Human), UniProt P42345). Description: KINOMEscan competition binding assay (Kd). The settings on record: read-out: Kd Values Against mTOR Kinase: mTOR. Here is the method:
(§4) KINOMEscan™ is based on a competition binding assay that quantitatively measures the ability of a test compound of the invention to compete with an immobilized, active-site directed ligand. The Kinase assay is performed by combining three components: DNA-tagged kinase; immobilized ligand; and a test compound. The ability of the test compound to compete with the immobilized ligand is measured via quantitative PCR of the DNA tag.
(§5) For most assays, kinase-tagged T7 phage strains were prepared in an E. coli host derived from the BL21 strain. E. coli were grown to log-phase and infected with T7 phage and incubated with shaking at 32° C. until lysis. The lysates were centrifuged and filtered to remove cell debris. The remaining kinases were produced in HEK-293 cells and subsequently tagged with DNA for qPCR detection. Streptavidin-coated magnetic beads were treated with biotinylated small molecule ligands for 30 minutes at room temperature to generate affinity resins for kinase assays. The liganded beads were blocked with excess biotin and washed with blocking buffer (SeaBlock (Pierce), 1% BSA, 0.05% Tween 20, 1 mM DTT) to remove unbound ligand and to reduce nonspecific binding. […] All reactions were performed in polystyrene 96-well plates in a final volume of 0.135 ml. […] The kinase concentration in the eluates was measured by qPCR.

Another test has as its target MEK1 (Homo sapiens (Human), UniProt Q02750). Description: KINOMEscan competition binding assay (Kd). The following applies: read-out: Kd Values Against MEK Kinases Isoforms: MEK1. The protocol:
as §4, §5

The target in a further test is MEK5 (Homo sapiens (Human), UniProt Q13163). The test can be described thus: KINOMEscan competition binding assay (Kd). Here is the method:
as §4, §5

Test [1] concerns the target Bruton Tyrosine Kinase (BTK) (Homo sapiens (Human), UniProt Q06187). The test can be described thus: Rabbit reticulocyte lysate assay (KinaseSeeker competition binding). The following applies: read-out: IC50 Activity Levels Against Bruton Tyrosine Kinase: BTK. Here is the method: 1. Rabbit Reticulocyte Lysate Assay Design:
KinaseSeeker is a homogeneous competition binding assay where the displacement of an active site dependent probe by an inhibitor is measured by a change in luminescence signal. Luminescence readout translates into a highly sensitive and robust assay with low background and minimal interference from test compounds.
10 mM stock solutions of test compounds were serially diluted in DMSO to make assay stocks. Prior to initiating IC50 determinations, the test compounds were evaluated for false positive against split-luciferase.
Each test compound was screened in duplicate against target kinase at 7 different concentrations. For kinase assays, Cfluc-kinase was translated along with Fos-Nfluc using a cell-free system (rabbit reticulocyte lysate) at 30° C. for 90 min. 24 uL aliquot of this lysate containing either 1 uL of DMSO (for no-inhibitor control) or compound solution in DMSO was incubated for 30 minutes at room temperature followed by 1 hour in presence of a kinase specific probe. 80 uL of luciferin assay reagent was added to each solution and luminescence was immediately measured on a luminometer.
The % Inhibition and % Activity Remaining was calculated using the following equation: % Inhibition=[(ALUControl−ALUSample)/ALUControl]×100 % Activity Remaining=100−% Inhibition
The % Activity was plotted against compound concentration and the IC50 was determined for each compound using a 7-point curve (Jester, B. W.; et. al. J. Am. Chem. Soc. 2010, 132, 11727-11735. Jester, B. W., et. al. J. Med. Chem. 2012, 55, 1526-1537). Biological activity of representative compounds of the disclosure are described in Table 5.

Where [2] appears, read: Table 12, read-out: Kd Values Against MEK Kinases Isoforms: MEK5.

Chain of Bruton Tyrosine Kinase (BTK) (Q06187 whole entry): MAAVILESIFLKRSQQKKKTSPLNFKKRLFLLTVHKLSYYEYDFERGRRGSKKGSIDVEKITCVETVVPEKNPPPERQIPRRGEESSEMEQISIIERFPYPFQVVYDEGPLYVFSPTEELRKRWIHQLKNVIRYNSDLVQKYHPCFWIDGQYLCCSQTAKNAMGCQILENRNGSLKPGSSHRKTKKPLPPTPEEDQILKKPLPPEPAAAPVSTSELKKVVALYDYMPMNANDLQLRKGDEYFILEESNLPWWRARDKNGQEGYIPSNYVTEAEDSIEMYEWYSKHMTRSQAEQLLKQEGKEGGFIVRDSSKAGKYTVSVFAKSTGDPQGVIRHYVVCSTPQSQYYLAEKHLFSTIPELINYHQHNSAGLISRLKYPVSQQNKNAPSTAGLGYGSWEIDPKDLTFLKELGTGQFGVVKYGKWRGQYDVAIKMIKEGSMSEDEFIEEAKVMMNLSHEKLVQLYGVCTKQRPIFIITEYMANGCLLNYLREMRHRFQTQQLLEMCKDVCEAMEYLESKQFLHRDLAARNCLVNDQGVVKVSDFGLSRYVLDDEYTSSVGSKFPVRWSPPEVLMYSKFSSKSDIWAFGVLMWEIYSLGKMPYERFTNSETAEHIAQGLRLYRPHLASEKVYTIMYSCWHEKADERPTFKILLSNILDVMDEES
Chain of BTK (Q06187 whole entry): as above
Chain of BRK (Q13882 whole entry): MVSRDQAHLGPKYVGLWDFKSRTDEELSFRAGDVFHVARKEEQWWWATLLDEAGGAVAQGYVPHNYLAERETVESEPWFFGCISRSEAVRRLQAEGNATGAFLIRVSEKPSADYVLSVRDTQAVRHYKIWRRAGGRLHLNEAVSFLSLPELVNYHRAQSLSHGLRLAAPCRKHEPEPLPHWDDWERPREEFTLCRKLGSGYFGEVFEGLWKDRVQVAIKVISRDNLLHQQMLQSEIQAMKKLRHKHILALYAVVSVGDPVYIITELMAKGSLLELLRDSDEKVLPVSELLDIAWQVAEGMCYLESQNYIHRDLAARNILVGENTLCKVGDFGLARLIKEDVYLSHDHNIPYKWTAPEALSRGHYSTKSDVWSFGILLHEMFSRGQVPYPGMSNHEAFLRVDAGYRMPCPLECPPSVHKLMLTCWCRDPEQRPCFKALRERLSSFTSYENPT
Chain of MEK1 (Q02750 whole entry, canonical isoform): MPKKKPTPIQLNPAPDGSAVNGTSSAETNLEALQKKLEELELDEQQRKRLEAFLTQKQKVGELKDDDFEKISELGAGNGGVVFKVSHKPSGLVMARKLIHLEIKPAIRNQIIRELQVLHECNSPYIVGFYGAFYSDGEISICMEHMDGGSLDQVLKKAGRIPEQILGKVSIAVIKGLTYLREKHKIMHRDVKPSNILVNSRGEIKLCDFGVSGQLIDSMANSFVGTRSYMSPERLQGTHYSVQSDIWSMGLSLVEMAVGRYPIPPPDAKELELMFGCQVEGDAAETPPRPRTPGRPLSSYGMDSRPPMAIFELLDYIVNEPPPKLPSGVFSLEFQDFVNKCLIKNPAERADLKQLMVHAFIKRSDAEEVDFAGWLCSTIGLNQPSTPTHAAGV
Chain of FYN-Y531F (P06241 whole entry Y531F): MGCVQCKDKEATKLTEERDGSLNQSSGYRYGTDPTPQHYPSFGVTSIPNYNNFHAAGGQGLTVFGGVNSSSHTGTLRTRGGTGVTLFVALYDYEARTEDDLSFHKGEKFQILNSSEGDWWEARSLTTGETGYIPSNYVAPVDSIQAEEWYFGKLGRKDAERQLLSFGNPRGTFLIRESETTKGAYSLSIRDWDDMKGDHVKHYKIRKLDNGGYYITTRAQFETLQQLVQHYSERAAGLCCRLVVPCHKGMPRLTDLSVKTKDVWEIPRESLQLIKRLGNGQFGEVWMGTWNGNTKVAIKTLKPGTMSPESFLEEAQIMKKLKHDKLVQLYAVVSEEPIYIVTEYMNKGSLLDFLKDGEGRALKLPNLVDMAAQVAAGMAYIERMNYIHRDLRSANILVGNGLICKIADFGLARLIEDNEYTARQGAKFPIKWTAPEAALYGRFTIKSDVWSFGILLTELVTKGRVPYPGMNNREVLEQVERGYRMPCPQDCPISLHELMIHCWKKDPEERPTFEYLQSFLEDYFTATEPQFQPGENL
Chain of BLK (P51451 whole entry): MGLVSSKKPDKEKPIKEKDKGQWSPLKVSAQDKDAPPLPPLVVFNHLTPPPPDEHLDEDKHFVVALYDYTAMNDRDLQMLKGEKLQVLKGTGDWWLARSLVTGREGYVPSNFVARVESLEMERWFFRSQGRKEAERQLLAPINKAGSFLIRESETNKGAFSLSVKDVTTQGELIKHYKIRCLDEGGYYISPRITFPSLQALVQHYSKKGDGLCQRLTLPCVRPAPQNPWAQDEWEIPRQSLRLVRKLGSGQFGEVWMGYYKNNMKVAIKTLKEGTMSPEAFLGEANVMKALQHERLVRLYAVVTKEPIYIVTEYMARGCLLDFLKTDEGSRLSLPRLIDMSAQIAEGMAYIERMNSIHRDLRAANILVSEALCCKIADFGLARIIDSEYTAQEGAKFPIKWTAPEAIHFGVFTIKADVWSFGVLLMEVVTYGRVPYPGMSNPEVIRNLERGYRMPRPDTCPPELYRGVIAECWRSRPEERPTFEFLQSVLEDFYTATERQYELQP
Chain of LCK (P06239 whole entry): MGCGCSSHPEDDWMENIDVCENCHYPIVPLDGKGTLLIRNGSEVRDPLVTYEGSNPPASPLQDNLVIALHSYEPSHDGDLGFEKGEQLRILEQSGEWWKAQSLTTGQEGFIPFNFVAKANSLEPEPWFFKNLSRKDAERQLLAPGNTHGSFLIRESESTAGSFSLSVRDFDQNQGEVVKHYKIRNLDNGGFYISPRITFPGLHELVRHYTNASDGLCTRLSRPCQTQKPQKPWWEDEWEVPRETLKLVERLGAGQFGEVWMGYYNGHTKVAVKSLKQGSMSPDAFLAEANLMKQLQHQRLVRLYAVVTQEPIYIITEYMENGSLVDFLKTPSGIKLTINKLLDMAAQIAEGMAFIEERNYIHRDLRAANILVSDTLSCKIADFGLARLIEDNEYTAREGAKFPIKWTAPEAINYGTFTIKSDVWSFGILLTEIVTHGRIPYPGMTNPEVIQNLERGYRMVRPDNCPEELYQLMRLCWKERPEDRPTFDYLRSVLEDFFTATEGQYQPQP
Chain of MEK5 (Q13163 whole entry): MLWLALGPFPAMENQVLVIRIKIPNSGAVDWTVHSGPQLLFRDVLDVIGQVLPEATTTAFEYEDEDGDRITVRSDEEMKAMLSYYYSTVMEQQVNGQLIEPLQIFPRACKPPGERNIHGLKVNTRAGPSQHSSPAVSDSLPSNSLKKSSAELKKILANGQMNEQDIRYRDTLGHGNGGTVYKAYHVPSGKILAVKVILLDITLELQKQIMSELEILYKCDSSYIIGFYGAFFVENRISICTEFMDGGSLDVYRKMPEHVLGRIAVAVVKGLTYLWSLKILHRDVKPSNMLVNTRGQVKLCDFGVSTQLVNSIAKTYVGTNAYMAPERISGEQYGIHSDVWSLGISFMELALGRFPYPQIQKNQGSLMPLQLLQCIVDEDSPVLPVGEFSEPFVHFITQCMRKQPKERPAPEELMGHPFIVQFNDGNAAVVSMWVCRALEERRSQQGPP
Chain of ARAF (P10398 whole entry): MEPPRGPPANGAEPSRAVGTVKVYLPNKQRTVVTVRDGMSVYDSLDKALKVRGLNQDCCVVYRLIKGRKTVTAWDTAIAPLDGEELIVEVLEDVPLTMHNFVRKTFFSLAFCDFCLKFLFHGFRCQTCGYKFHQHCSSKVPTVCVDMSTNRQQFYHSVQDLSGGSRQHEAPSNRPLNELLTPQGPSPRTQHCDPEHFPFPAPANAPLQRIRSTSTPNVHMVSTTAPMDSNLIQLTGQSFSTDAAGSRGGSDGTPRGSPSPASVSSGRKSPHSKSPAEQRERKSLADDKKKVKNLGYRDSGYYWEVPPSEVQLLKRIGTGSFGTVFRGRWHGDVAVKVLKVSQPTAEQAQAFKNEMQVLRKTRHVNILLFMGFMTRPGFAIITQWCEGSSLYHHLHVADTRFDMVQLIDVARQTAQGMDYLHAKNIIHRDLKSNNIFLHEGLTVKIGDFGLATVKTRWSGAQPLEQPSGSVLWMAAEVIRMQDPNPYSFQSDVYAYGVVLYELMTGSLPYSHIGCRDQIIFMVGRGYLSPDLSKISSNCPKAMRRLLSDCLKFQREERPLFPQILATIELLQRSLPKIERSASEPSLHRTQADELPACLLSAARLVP
Chain of FYN (P06241 whole entry): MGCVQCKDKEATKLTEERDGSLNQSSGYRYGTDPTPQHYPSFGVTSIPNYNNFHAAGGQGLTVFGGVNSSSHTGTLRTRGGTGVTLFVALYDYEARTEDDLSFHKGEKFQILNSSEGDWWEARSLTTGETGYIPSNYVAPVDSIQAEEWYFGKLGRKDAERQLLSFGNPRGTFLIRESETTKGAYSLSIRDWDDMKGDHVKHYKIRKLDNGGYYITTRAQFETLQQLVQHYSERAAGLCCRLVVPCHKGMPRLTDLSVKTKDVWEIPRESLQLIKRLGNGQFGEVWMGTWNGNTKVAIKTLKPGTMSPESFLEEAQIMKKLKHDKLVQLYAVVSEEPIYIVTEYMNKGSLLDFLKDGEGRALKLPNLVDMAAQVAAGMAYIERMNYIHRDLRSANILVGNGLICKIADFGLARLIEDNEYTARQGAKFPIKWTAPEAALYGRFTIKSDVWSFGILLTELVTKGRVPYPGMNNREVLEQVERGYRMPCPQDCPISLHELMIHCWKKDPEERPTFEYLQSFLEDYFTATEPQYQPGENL

For `Nc1ncnc2c1c(-c1ccc(Oc3ccccc3)cc1)nn2C[C@H]1SSC[C@H]1O` [46 B.], the IC50 at BTK is 5 to 99 nM; on FYN it was under 5 nM; at LCK it was under 5 nM; on CRAP, 1000 to 10000 nM; at BRK, 5 to 99 nM; at FYN-Y531F, 5 to 99 nM. For the same compound, the IC50 was 100 to 999 nM on FLT3-ITD, under 5 nM at BLK, 100 to 999 nM at ARAF and 1000 to 10000 nM in [1]. The Kd at mTOR was 100 to 999 nM; on MEK1 it was 5 to 99 nM; on MEK5 (setting [2]) it was under 5 nM.
As for `Nc1ncnc2c1c(-c1ccc(Oc3ccccc3)cc1)nn2C[C@H]1SSC[C@@H]1O` [43 B.], the IC50 at BTK is 5 to 99 nM; at FYN, under 5 nM; on LCK, under 5 nM; on BRK, 5 to 99 nM; on FYN-Y531F, 100 to 999 nM; at FLT3-ITD, 100 to 999 nM. Further, the IC50 on BLK fell in the range of 5 to 99 nM; in test [1], 100 to 999 nM. The equilibrium dissociation constant (Kd) is 100 to 999 nM at mTOR, 5 to 99 nM on MEK1 and under 5 nM on MEK5 (setting [2]).
Regarding `Nc1ncnc2c1c(-c1ccc(Oc3ccccc3)cc1)nn2C[C@@H]1SSC[C@H]1O` [43 A.], the half-inhibitory concentration (IC50) on BTK is 5 to 99 nM; at FYN, under 5 nM; on LCK, under 5 nM; at CRAP it was 1000 to 10000 nM; at BRK, 5 to 99 nM; at FYN-Y531F, 5 to 99 nM. Further, the IC50 at FLT3-ITD was 100 to 999 nM; at BLK, under 5 nM; at ARAF, 100 to 999 nM; in test [1], 1000 to 10000 nM. Besides, the Kd on mTOR is 1000 to 10000 nM; at MEK5 (Table 9, read-out: Kd Values Against Representative MEK5 Kinase: MEK5) it was under 5 nM.
In the case of `Nc1ncnc2c1c(-c1ccc(Oc3ccccc3)cc1)nn2C[C@@H]1SSC[C@@H]1O` [46 A.], the IC50 at BTK was 5 to 99 nM; at FYN, 5 to 99 nM; on LCK it was 5 to 99 nM; on CRAP it was 1000 to 10000 nM; at BRK it was 5 to 99 nM; at FYN-Y531F, 5 to 99 nM. The half-inhibitory concentration (IC50) was in the range of 100 to 999 nM on FLT3-ITD, 5 to 99 nM on BLK, 1000 to 10000 nM on ARAF and 1000 to 10000 nM in test [1]. Moreover, the values for the Kd on mTOR, at MEK1 and on MEK5 (setting [2]) were 100 to 999 nM, 100 to 999 nM and under 5 nM, respectively.

By IC50 is commonly meant the concentration at which inhibition is half-maximal. The Kd is the free concentration of one partner at which half of the binding sites on the other are occupied at equilibrium, for simple one-to-one binding.
